The record followed here is patent US20240376109A1, “PYRAZOLO[1,5-A]PYRIMIDINE COMPOUND FOR THE TREATMENT OF DERMAL DISORDERS” (OTSUKA PHARMACEUTICAL CO., LTD., priority 2021, published 2024).

pIC50: −log10 of the molar value. Where two headings read alike, the source gives them in different places.

Assay [1] deals with T1, PAR2 (Homo sapiens, UniProt P55085).
T1 construct: HEK293 cell lines derived from human embryonic kidney cultured in a MEM culture medium; endogenous in cells; host or cells: HEK293
T1 sequence (P55085 26-397): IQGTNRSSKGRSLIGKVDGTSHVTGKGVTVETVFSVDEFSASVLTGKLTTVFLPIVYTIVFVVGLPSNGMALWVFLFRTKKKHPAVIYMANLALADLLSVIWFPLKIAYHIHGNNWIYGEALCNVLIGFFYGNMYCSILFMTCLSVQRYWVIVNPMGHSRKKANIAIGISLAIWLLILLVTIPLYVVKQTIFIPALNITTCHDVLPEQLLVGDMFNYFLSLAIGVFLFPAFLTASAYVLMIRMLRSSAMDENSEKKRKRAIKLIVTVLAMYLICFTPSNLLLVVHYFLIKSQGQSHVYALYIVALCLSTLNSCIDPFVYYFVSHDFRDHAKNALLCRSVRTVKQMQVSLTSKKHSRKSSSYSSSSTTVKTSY
Nature of the assay: Intracellular calcium concentration measurement (SLIGKV-NH2-induced calcium change, Fluo-8, FDSS/μCELL). The assay is classed as cell-based. Conditions: for pIC50: HEK293 cells, SLIGKV-NH2 10 μM-induced intracellular calcium change, read-out: IC50. In general terms: A change in cytosolic calcium serves as a functional read-out for many receptors and channels.

In assay [2] the test system is ICR mice. Nature of the assay: Scratching behavior test with PAR2 agonist peptide (SLIGRL-NH2) administration. Type of assay: in vivo, mouse. Conditions: 40 μL of 6% test compound solution applied to back, SLIGRL-NH2 intradermal, scratching counted 10 to 40 minutes after. The protocol: Test Example 2: Scratching Behavior Test with PAR2 Agonist Peptide Administration
Magnets for measuring scratching behavior(Neuroscience, Inc.) were implanted in both legs of 6- to 7-week-old female ICR mice under 3.5% isoflurane inhalation anesthesia.
Under isoflurane inhalation anesthesia, the upper back was shaved about 2×3 cm with a shaver and 40 μL of a 6% of test compound solution was applied with a micropipette. The animals were then kept in a dedicated cage for 1 hour. […] Then, under isoflurane inhalation anesthesia, 10 μL of a 25 mg/mL solution of PAR2 agonist peptide (SLIGRL-NH2) in distilled water was administered intradermally by using a needle attached to a Hamilton syringe. The animals were returned to the cage and the scratching frequency was measured by the device for 30 minutes from 10 to 40 minutes after the administration.
The inhibitory effect of the test compounds on scratching behavior was calculated as a percentage of the number of scratches in the solvent-applied and PAR2 agonist peptide-treated group, and is shown in Table 4 as a percentage.

In assay [3] the test system is NC/Nga mice. Kind of assay: Scratching behavior test using atopic dermatitis model (SDS and mite antigen ointment sensitization). Conditions: 60 μL applied, 7 hours after application.
Where [4] appears, read: assessed concentration 6%, solvent 100% ethanol.
The mark [5] stands for this setting: assessed concentration 1%, solvent 100% ethanol.

With `CCCc1cc(C23CC4CC(CC(C4)C2)C3)nc2cc(C(=O)N3CCCCCC3)nn12` [Example 1], in assay [1], the pIC50 is 6.76. In assay [2] (solvent 100% ethanol), this compound came in with a scratching-behavior inhibition rate of 35%. In assay [3] (setting [4]), the “Scratching behavior inhibition rate” value turned out to be 76%.
As to `CC(C)c1cc(C23CC4CC(CC(C4)C2)C3)nc2cc(C(=O)N3CCCCC3(C)C)nn12` [Example 2], in assay [1], the pIC50 was 7.51. In assay [2] (solvent 100% ethanol), this compound had a scratching-behavior inhibition rate of 46%.
`O=C(c1cc2nc(CC3CCCC3)cc(C(F)(F)F)n2n1)N1CCCCCC1` [Example 4, azepan-1-yl(5-(cyclopentylmethyl)-7-(trifluoromethyl)pyrazolo[1,5-a]pyrimidin-2-yl)methanone]: in assay [1], the negative-log IC50 (pIC50) is 6.96. For the same compound, the “Scratching behavior inhibition rate” value in assay [3] (assessed concentration 6%, solvent 70% ethanol) is on record as 56%.
Regarding `CC1(C)CC(O)CCN1C(=O)c1cc2nc(CC3CCCCC3)cc(C(F)(F)F)n2n1` (stereo not shown) [Example 5], the pIC50 in assay [1] is 6.89. Further, the scratching-behavior inhibition rate in assay [2] (solvent 100% ethanol) is listed as 36%.
With `O=C(c1cc2nc(CCC3CCCC3)cc(C(F)(F)F)n2n1)N1CCCCCC1` [Example 6, azepan-1-yl(5-(2-cyclopentylethyl)-7-(trifluoromethyl)pyrazolo[1,5-a]pyrimidin-2-yl)methanone], in assay [1], the negative logarithm of the IC50 (pIC50) was 6.83. For the same compound, the “Scratching behavior inhibition rate” value in assay [3] (setting [4]) is 60%.
Consider `O=C(c1cc2nc(CC3CCCCC3)cc(C3CCCCC3)n2n1)N1CCCCCC1` [Example 8, azepan-1-yl(7-cyclohexyl-5-(cyclohexylmethyl)pyrazolo[1,5-a]pyrimidin-2-yl)methanone], for which the pIC50 in assay [1] was 7.02. The same compound had a scratching-behavior inhibition rate in assay [2] (solvent 100% ethanol) of 30%. The “Scratching behavior inhibition rate” value in assay [3] (setting [4]) was found to be 50%.
With `CCCCc1cc(CC2CCCCC2)nc2cc(C(=O)N3CCCCCC3)nn12` [Example 10], the pIC50 in assay [1] was 6.75. This compound registered a scratching-behavior inhibition rate in assay [2] (solvent 100% ethanol) of 41%. Also, in assay [3] (setting [5]), the “Scratching behavior inhibition rate” value came to 48%.
On to `CCc1cc(CC2CCCC2)nc2cc(C(=O)N3CCCCC3(C)C)nn12` [Example 11], for which the pIC50 in assay [1] is 6.60. In addition, the “Scratching behavior inhibition rate” value in assay [3] (setting [4]) is listed as 80%.
Regarding `CCC(CC)c1cc(CC2CCCC2)nc2cc(C(=O)N3CCCCC3(C)C)nn12` [Example 13], in assay [1], the pIC50 is 7.16. For the same compound, in assay [2] (solvent 100% ethanol), the scratching-behavior inhibition rate is recorded as 37%.
The matching figures for `CCCc1cc(CC2CCCC2)nc2cc(C(=O)N3CCCCCC3)nn12` [Example 16]: 6.59 and 47%.
The matching figures for `CC(C)c1cc(CC2CCCC2)nc2cc(C(=O)N3CCSCC3(C)C)nn12` [Example 18]: 7.44 and 39%.
As for `CCc1cc(CC2CCCCC2)nc2cc(C(=O)N3CCCCCC3)nn12` [Example 19], in assay [1], the pIC50 was 6.88. Moreover, in assay [2] (solvent 100% ethanol), the scratching-behavior inhibition rate came to 42%. The “Scratching behavior inhibition rate” value in assay [3] (setting [5]) worked out at 70%.
For the compound `CC(C)c1cc(C2CCCCC2)nc2cc(C(=O)N3CCCCC3(C)C)nn12` [Example 32], the pIC50 in assay [1] is 6.93. Also, the scratching-behavior inhibition rate in assay [2] (solvent 100% ethanol) is 41%.
The matching figures for `CCC(CC)c1cc(CC2CCCCC2)nc2cc(C(=O)N3CCCCCC3)nn12` [Example 37]: 7.06 and 30%.
Turning to `CC1(C)CNCCN1C(=O)c1cc2nc(C34CC5CC(CC(C5)C3)C4)cc(C(F)(F)F)n2n1` [Example 53, [5-(1-adamantyl)-7-(trifluoromethyl)pyrazolo[1,5-a]pyrimidin-2-yl]-(2,2-dimethylpiperazin-1-yl)methanone], the pIC50 in assay [1] is 6.39. In addition, the scratching-behavior inhibition rate in assay [2] (solvent Acetone/methanol (1:1)) amounted to 44%.
The matching figures for `O=C(c1cc2nc(C3CCCCC3)cc(C(F)(F)F)n2n1)N1CCCCCC1` [Example 54]: 6.45 and 25%.
With `O=C(c1cc2nc(C3CCCC3)cc(C(F)(F)F)n2n1)N1CCCCCC1` [Example 55], the pIC50 in assay [1] was 6.24. For the same compound, in assay [2] (solvent Acetone/methanol (1:1)), the scratching-behavior inhibition rate is 47%. Besides, in assay [3] (assessed concentration 6%, solvent Acetone/methanol (1:1)), the “Scratching behavior inhibition rate” value was found to be 54%.
As to `CC(C)c1cc(C23CC4CC(CC(C4)C2)C3)nc2cc(C(=O)N3CCNCC3(C)C)nn12` [Example 59], the pIC50 in assay [1] is 6.45. Further, the scratching-behavior inhibition rate in assay [2] (solvent Acetone/methanol (1:1)) is recorded as 28%.
Take `CC1(C)CCCCN1C(=O)c1cc2nc(C3CCCCC3)cc(C(F)(F)F)n2n1` [Example 65]: the pIC50 in assay [1] is 6.97. For the same compound, the scratching-behavior inhibition rate in assay [2] (solvent 100% ethanol) is given as 27%.
As for `CCC(CC)c1cc(CC2CCCC2)nc2cc(C(=O)N3CCC(C)(C)C(=O)C3(C)C)nn12` [Example 70], in assay [1], the pIC50 is 7.29. Moreover, in assay [2] (solvent 100% ethanol), the scratching-behavior inhibition rate is 33%.
`CC(C)c1cc(CC2CCCC2)nc2cc(C(=O)N3CCC(C)(C)C(=O)C3(C)C)nn12` [Example 71]: the pIC50 in assay [1] was 6.94. The same compound yielded a scratching-behavior inhibition rate in assay [2] (solvent 100% ethanol) of 27%.
For the compound `O=C(c1cc2nc(C34CC5CC(CC(C5)C3)C4)cc(C(F)(F)F)n2n1)N1CCCCCC1` [Example 94], the pIC50 in assay [1] is 6.85. In addition, the scratching-behavior inhibition rate in assay [2] (solvent Acetone/methanol (1:1)) is 44%.
For the compound `CC1(C)CCN(C(=O)c2cc3nc(CC4CCCC4)cc(C(F)(F)F)n3n2)C(C)(C)C1=O` [Example 105], the pIC50 in assay [1] was 7.08. Further, the scratching-behavior inhibition rate in assay [2] (solvent 100% ethanol) was found to be 27%.
On to `CC1(C)CNCCCN1C(=O)c1cc2nc(C34CC5CC(CC(C5)C3)C4)cc(C(F)(F)F)n2n1` [Example 110], for which, in assay [1], the pIC50 is 6.64. This compound showed a scratching-behavior inhibition rate in assay [2] (solvent Acetone/methanol (1:1)) of 25%.
With `CC(C)c1cc(CC2CCCC2)nc2cc(C(=O)N3CCCC(O)C3(C)C)nn12` (stereo not shown) [Example 117], in assay [1], the pIC50 was 6.77. Also, in assay [2] (solvent 100% ethanol), the scratching-behavior inhibition rate amounted to 34%.
On to `CCc1cc(CC2CCCC2)nc2cc(C(=O)N3CCCCCCC3)nn12` [Example 145], for which, in assay [1], the negative-log IC50 (pIC50) is 6.60.
The same measure, in the same setting: under `CCc1cc(CC2CCCCC2)nc2cc(C(=O)N3CCCCCCC3)nn12` [Example 146] stands 6.87; under `CCc1cc(CC2CCCCCC2)nc2cc(C(=O)N3CCCCCCC3)nn12` [Example 147], 6.79; under `CCc1cc(CC2CCCCCC2)nc2cc(C(=O)N3CCCCCC3)nn12` [Example 148], 6.84.
Same read-out and setting: under `CCC(C)c1cc(CC2CCCCCC2)nc2cc(C(=O)N3CCCCCC3)nn12` (stereo not shown) [Example 149] stands 6.68; under `CC(C)(C)c1cc(CC2CCCC2)nc2cc(C(=O)N3CCCCCCC3)nn12` [Example 150], 6.74.
For the compound `CC(C)c1cc(C2CC23CCCCC3)nc2cc(C(=O)N3CCCCCC3)nn12` (stereo not shown) [Example 151], in assay [1], the pIC50 is 6.83.
Same read-out and setting: under `CC(C)c1cc(CC2CCC(C)(C)CC2)nc2cc(C(=O)N3CCCCCC3)nn12` [Example 152] stands 6.88.
The same measure, in the same setting: for `CC(C)c1cc(CC2CCC(F)CC2)nc2cc(C(=O)N3CCCCCC3)nn12` (stereo not shown) [Example 153] the value was 6.55; for `CC(C)c1cc(CC2CC3CCC2C3)nc2cc(C(=O)N3CCCCCC3)nn12` (stereo not shown) [Example 154], 7.33.
As to `CC(C)c1cc(CC2CCC3CCCCC3C2)nc2cc(C(=O)N3CCCCCC3)nn12` (stereo not shown) [Example 155], the IC50 in assay [1] (IC50 (nM)) came out at 218 nM.
Take `CC(C)c1cc(CC2CCC(C(F)(F)F)CC2)nc2cc(C(=O)N3CCCCCC3)nn12` (stereo not shown) [Example 156]: the pIC50 in assay [1] is 6.99.
Still for that read-out and setting: for `CC(C)c1cc(C2CC3CCC2C3)nc2cc(C(=O)N3CCCCCC3)nn12` (stereo not shown) [Example 157] the value was 6.50; for `CC(C)c1cc(CC2CCCCC2C)nc2cc(C(=O)N3CCCCCC3)nn12` (stereo not shown) [Example 158], 6.93; for `CC(C)c1cc(C2C3CCCCC32)nc2cc(C(=O)N3CCCCCC3)nn12` (stereo not shown) [Example 159], 6.40.
On the same count and under the same terms, for `CC(C)c1cc(CC2CC3(CCC3)C2)nc2cc(C(=O)N3CCCCCC3)nn12` [Example 160] the value was 6.83.
The same measure, in the same setting: for `CC(C)(C)c1cc(CC2CCCCC2)nc2cc(C(=O)N3CCCCC3(C)C)nn12` [Example 161] the value was 6.53; for `CC1(C)CCCCN1C(=O)c1cc2nc(C3CCCC3)cc(C(F)(F)F)n2n1` [Example 162], 6.52.

The term pIC50 denotes the negative decadic logarithm of the IC50, by convention in mol/L. What is called IC50 is the point on the concentration scale where inhibition reaches its midpoint.
